Here are results for seven compounds from BindingDB's records for doi:10.1016/s0960-894x(97)10151-2 (Merck, 1999).

SMILES strings stand for the structures.

This assay deals with Endothelin receptor type B (Sus scrofa). Put plainly: Inhibition of [125I]ET1 binding to porcine kidney inner medulla membrane Endothelin B receptor.

In turn, `CCCOc1ccc2c(c1)c(-c1ccc(OC)cc1)c(C(=O)O)n2Cc1ccc2nsnc2c1` [1-Benzo[1,2,5]thiadiazol-5-ylmethyl-3-(4-methoxy-phenyl)-5-propoxy-1H-indole-2-carboxylic acid] showed an IC50 of 1.2 µM.

The compound `COc1ccc(-c2c(C(=O)O)c(=O)n(Cc3ccc4nsnc4c3)c3c2oc2ccccc23)cc1` [1-Benzo[1,2,5]thiadiazol-5-ylmethyl-4-(4-methoxy-phenyl)-2-oxo-1,2-dihydro-benzo[4,5]furo[3,2-b]pyridine-3-carboxylic acid] returned an IC50 of 0.3 µM.

With `CN(C)c1cccc2c(S(=O)(=O)Nc3ccc4c(c3)OCO4)cccc12` [5-Dimethylamino-naphthalene-1-sulfonic acid benzo[1,3]dioxol-5-ylamide], the IC50 is > 10 µM.

Turning to `COc1ccc(-c2c(C(=O)O)c(=O)n(Cc3ccc4c(c3)OCO4)c3c2oc2ccccc23)cc1` [1-Benzo[1,3]dioxol-5-ylmethyl-4-(4-methoxy-phenyl)-2-oxo-1,2-dihydro-benzo[4,5]furo[3,2-b]pyridine-3-carboxylic acid], the IC50 stood at 0.44 µM.

`CCCOc1ccc2c(c1)c(-c1ccc3c(c1)OCO3)c(C(=O)O)n2Cc1ccc2nonc2c1` [3-Benzo[1,3]dioxol-5-yl-1-benzo[1,2,5]oxadiazol-5-ylmethyl-5-propoxy-1H-indole-2-carboxylic acid] gave an IC50 of 5.3 µM.

Turning to `CCCOc1ccc2c(c1)c(-c1ccc3c(c1)OCO3)c(C(=O)O)n2Cc1ccc2c(c1)OCO2` [3-Benzo[1,3]dioxol-5-yl-1-benzo[1,3]dioxol-5-ylmethyl-5-propoxy-1H-indole-2-carboxylic acid], the 50% inhibitory concentration (IC50) was 1.6 µM.

With `COc1ccc(C2(O)OC(=O)C(c3ccc4nsnc4c3)=C2Cc2cc(OC)c(OC)c(OC)c2)cc1` (configuration not stated) [3-Benzo[1,2,5]thiadiazol-5-yl-5-hydroxy-5-(4-methoxy-phenyl)-4-(3,4,5-trimethoxy-benzyl)-5H-furan-2-one], the IC50 came to 0.34 µM.

The IC50 is the concentration needed to halve the response being measured. A high value points to weaker potency in that assay.
